Values of other authors in PMC9796293 (British Journal of Clinical Pharmacology, 2022).

Test system: monocytes

## O=C(CCCCCCC(=O)Nc1ccc(CN[C@H](C(=O)OC2CCCC2)c2ccccc2)cc1)NO [tefinostat]
Phase I study in cancer patients ref 20
  lowest dose that induced monocyte histone acetylation: 40 mg
Clinical ref 20
  monocytopaenia: not observed
